Molecules are shown by their SMILES. Where two headings read alike, the source gives them in different places.

The values that follow come from patent publication US6537803B1, “Amino acid transporters and uses” (Oregon Health Sciences University, priority 1993, dated 2003).

In one data set the test system is Water-injected Oocytes. As to the kind of experiment: radiolabeled amino acid uptake in water-injected Xenopus oocytes. It is filed as cell-based, Xenopus laevis. To be noted: Amino Acid (1 mM); n = 5. An excerpt:
(§1) Following the PCR, the product of the amplification reaction was purified using standard techniques (Saiki et al., 1988, Science 239: 487-491). The DNA then digested with the restriction enzymes KpnI and XbaI and then cloned into the polylinker of an oocyte transcription vector (POTV; see Wang el al., 1991, Nature 352: 729-731) that had been digested with KpnI and XbaI. Synthetic RNA was then transcribed in vitro from this clone using the method of Kavanaugh et al. (1992, J. Biol. Chem. 267: 22007-22009) employing bacteriophage T7 RNA polymerase (New England Biolabs, Beverly, Mass.). 20-50 nL of ASCT1 RNA (at a concentration of about 400 μg/mL) was injected into defolliculated stage V-VI Xenopus oocytes excised from female Xenopus laevis anesthetized by immersion in 3-aminobenzoic acid for 60 min. Excised oocytes were treated with collagenase II (Sigma Chemical Co., St. Louis, Mo.) in calcium-free Barth's saline solution [comprising 88 mM NaCl, 1 mM KCl, 2.4 mM NaHCO3, 0.82 mM MgSO4, 7.5 mM Tris-HCl (pH 7.6), 50 U/mL Nystatin (Sigma) and 0.1 mg/mL gentamycin (Sigma)] for 60 min., and then incubated overnight at 15° C. in 50% Leibowitz's L-15 media (Grand Island Biological Co. (GIBCO), Long Island, N.Y.). After overnight incubation the oocytes were mechanically defolliculated and then were injected with ASCT-1 RNA and incubated at 19° C. for 48 h (see Kim el al., 1991, Nature 352: 725-728 for further details of Xenopus oocyte preparation and microinjection).
Amino acid transport in such oocytes was assayed using [^3H] alanine, [^3H] serine or [^35S] cysteine (obtained from New England Nuclear, Boston, Mass.). Briefly, microinjected oocytes were […] at −60 mV using a Dagan TEV-200 clamp amplifier with an Axon Instruments (Foster City, Calif.) TL-1 A/D interface controlled by pCLAMP software (Axon Instruments) (see Kavanaugh et al., 1992, J. Biol. Chem. 267: 22007-22009 for a detailed review of this methodology) and continuously superfused with ND-96 buffer (consisting of 96 mM NaCl/2 mM KCl/1.8 mM CaCl2/1 mM MgCl2/5 mM HEPES, pH 7.5). […]

Data set [1] addresses T1, human ASCT1 neutral amino acid transporter (Homo sapiens, UniProt P43007).
T1 construct: expressed in transfected cells; host or cells: Xenopus laevis oocytes injected with in vitro transcribed RNA (pOTV vector)
T1 sequence (P43007 1-532): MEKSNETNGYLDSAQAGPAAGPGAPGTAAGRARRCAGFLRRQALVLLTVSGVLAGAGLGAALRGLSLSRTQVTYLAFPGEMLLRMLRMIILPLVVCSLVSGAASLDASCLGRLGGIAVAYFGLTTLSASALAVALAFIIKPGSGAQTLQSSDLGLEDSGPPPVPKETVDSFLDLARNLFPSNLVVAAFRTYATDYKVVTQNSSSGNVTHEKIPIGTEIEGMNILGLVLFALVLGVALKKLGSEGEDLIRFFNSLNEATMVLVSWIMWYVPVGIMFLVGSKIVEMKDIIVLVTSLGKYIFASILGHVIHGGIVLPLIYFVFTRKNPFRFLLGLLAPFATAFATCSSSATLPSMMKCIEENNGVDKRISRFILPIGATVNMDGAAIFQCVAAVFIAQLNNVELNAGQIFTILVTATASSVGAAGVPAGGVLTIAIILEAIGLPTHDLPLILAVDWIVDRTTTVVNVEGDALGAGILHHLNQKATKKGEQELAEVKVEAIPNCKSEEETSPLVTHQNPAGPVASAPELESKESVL
Description: amino acid-induced inward current in voltage-clamped ASCT1-injected Xenopus oocytes. It is filed as cell-based. To be noted: for Imax (maximal current): L-stereoisomer, current normalized to the maximum response obtained with L-alanine, mean ± standard error; for membrane response (inward Na+ currents) of ASCT1-injected oocytes: ND-96 buffer, clamped at −60 mV.
From the text: as §1
(§2) Amino acid transport in such oocytes was assayed using [^3H] alanine, [^3H] serine or [^35S] cysteine (obtained from New England Nuclear, Boston, Mass.). Briefly, microinjected oocytes were […] at −60 mV using a Dagan TEV-200 clamp amplifier with an Axon Instruments (Foster City, Calif.) TL-1 A/D interface controlled by pCLAMP software (Axon Instruments) (see Kavanaugh et al., 1992, J. Biol. Chem. 267: 22007-22009 for a detailed review of this methodology) and continuously superfused with ND-96 buffer (consisting of 96 mM NaCl/2 mM KCl/1.8 mM CaCl2/1 mM MgCl2/5 mM HEPES, pH 7.5). For transport measurements, this solution was changed to a solution containing varying concentrations of the radiolabeled amino acids in ND-96 buffer.
More detailed analyses of ithe kinetics of amino acid influx were performed by least squares linear regression analysis of induced inward current ([I]) plotted as a function of substrate amino acid concentration ([S]), using the equation shown in the legend of Table II.

Data set [2] addresses human EAAT1 excitatory amino acid transporter (Homo sapiens, UniProt P43003). Description: electrogenic amino acid uptake in EAAT1-expressing Xenopus oocytes. To be noted: for electrogenic uptake in EAAT1-expressing oocytes: 1000 μM.
Description: Such RNA preparations were each introduced into Xenopus oocytes as descnbed in Example 3 to enable expression therein. Amino acid uptake experiments were performed on such oocytes expressing each of the glutamate transporters, also as described in Example 3.
These experiments were performed essentially as described for the ASCT1 transporter in Example 3.
Data set [3] has as its target T1, human ASCT1 neutral amino acid transporter. As to the kind of experiment: radiolabeled amino acid uptake in ASCT1 RNA-injected Xenopus oocytes. It is filed as cell-based. To be noted: for rate of radiolabeled amino acid uptake, ASCT1 RNA-injected Oocytes: Amino Acid (1 mM), n = 5.
From the text: as §1, §2

A further data set has as its system neuronal cell. The note with it: cited from earlier work.
The target in the next data set is T2, human EAAT3 (Homo sapiens, UniProt P43005).
T2 construct: isolation of Clone GT11B containing a full-length open reading frame encoding EAAT3; expressed in transfected cells; host or cells: COS-7 cells, pCMV5 construct, DEAE-dextran transient transfection
T2 sequence (P43005 1-524): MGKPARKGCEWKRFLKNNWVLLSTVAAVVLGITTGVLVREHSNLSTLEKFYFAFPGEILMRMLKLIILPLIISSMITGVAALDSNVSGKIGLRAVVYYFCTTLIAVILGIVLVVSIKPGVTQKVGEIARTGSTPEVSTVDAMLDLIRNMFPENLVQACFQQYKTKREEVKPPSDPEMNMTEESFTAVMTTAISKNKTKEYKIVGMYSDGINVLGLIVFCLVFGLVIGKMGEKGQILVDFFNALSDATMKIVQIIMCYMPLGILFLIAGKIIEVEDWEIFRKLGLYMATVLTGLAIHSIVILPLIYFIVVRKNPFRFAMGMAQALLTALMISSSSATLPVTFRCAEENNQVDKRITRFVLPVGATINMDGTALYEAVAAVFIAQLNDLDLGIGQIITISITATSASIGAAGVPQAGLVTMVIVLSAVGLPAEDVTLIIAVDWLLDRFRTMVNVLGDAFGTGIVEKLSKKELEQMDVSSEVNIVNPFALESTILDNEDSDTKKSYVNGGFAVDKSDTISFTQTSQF
Description: inhibition of [3H]-L-glutamate uptake in COS-7 cells expressing EAAT3. It is filed as cell-based. The note with it: for Ki: read-out: Ki, glutamate uptake inhibition constant, EAAT3. From the text:
(§3) DNA fragments comprising the coding sequences of the novel glutamate transporter genes of the invention were excised from the POTV constructs described in Example 3 and subcloned into the mammalian expression plasmid pCMV5 (Anderson et al., 1989, J. Biol. Chem. 264: 8222-8229). These mammalian expression constructs were used for transient expression assays of glutamate transporter protein function after transfection of each of these constructs into COS-7 cells (Gluzman, 1981, Cell 23: 175-182).
(§4) Each of the pCMV5 constructs corresponding to EAAT1, EAAT2 and EAAT3 were introduced into COS-7 cells by DEAE-dextran facilitated transfection (see Sambrook et al., ibid.). Two day following transfection, the transfected cells were washed three times in phosphate-buffered saline (PBS) and then incubated with a mixture of radiolabeled amino acid ([^3H]-L-glutamate or [^3H]-D-aspartate; Dupont-NEN) and non-radiolabeled amino acid for 10 min. After incubation, the cells were washed three times with ice-cold PBS, solubilized with a solution of 0.1% sodium dodecyl sulfate (SDS) and the amount of radioactivity associated with the cells determined using standard liquid scintillation counting methods.
(§5) COS-7 cell cultures transformed with pCMVS-human glutamate transporter constructs as described in Example 4 were used to characterize the pharmacological properties of each of these transporter proteins relative to a variety of known glutamate transporter inhibitors. These assays were performed essentially as described in Example 4, with the exception that varying amounts of each of a number of known inhibitor compounds were included in the incubations.
(§6) In these experiments, uptake of 1 μM of […] was determined in the presence of the indicated amounts of each of the inhibitors.

In another data set the target is T3, human EAAT1 (Homo sapiens, UniProt P43003).
T3 construct: expressed in transfected cells; host or cells: COS-7 cells, pCMV5 construct, DEAE-dextran transient transfection
As to the kind of experiment: inhibition of [3H]-L-glutamate uptake in COS-7 cells expressing EAAT1. It is filed as cell-based. To be noted: for Ki: read-out: Ki, glutamate uptake inhibition constant, EAAT1.
From the text: as §3, §4, §5, §6

Another data set concerns the target T4, human EAAT2 (Homo sapiens, UniProt P43004).
T4 construct: expressed in transfected cells; host or cells: COS-7 cells, pCMV5 construct, DEAE-dextran transient transfection
Description: inhibition of [3H]-L-glutamate uptake in COS-7 cells expressing EAAT2. It is filed as cell-based. To be noted: for Ki: read-out: Ki, glutamate uptake inhibition constant, EAAT2.
From the text: as §3, §4, §5, §6

Where [4] appears, read: uptake of 1 μM [3H]-L-glutamate, [S] << Km, Ki does not differ significantly from measured IC50.
Where [5] appears, read: uptake of 1 μM [3H]-L-glutamate, bound given in mM.

T4 sequence (P43004 whole entry): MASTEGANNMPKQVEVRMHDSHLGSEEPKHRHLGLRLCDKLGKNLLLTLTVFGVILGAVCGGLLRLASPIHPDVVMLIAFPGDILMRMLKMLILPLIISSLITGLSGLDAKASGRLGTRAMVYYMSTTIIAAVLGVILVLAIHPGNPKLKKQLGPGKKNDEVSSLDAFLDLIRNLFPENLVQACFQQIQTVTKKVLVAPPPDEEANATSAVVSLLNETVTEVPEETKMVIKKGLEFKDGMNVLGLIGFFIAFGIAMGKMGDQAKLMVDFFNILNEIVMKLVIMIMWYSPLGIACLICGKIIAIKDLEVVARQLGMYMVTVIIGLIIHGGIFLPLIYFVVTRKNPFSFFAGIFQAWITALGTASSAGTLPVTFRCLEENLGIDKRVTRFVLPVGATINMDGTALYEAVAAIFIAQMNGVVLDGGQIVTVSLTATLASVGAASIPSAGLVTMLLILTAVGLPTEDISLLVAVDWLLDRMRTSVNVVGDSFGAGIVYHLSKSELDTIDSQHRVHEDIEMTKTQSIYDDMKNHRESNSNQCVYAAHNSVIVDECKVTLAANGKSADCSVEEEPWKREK
human EAAT1 excitatory amino acid transporter, sequence (P43003 whole entry, the tested form may be a part): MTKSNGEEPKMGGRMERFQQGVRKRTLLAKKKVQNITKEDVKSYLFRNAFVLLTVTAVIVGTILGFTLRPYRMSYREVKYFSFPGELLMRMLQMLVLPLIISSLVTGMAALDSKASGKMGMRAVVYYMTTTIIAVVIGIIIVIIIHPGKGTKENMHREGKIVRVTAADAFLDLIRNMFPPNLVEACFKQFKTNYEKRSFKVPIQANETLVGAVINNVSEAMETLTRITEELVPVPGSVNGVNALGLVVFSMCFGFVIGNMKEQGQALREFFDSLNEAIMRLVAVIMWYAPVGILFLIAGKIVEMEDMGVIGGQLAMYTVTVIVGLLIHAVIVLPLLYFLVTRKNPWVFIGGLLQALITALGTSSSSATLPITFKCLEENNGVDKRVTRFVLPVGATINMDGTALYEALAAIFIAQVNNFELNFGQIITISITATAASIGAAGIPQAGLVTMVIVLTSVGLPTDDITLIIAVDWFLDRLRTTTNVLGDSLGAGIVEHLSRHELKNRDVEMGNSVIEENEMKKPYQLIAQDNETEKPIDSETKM
T3 sequence (P43003 whole entry): as the sequence (P43003 whole entry, the tested form may be a part) above

For the molecule `C[C@H](N)C(=O)O` [L-alanine], the “rate of radiolabeled amino acid uptake, Water-injected Oocytes” value (“rate … Water-injected Oocytes” for short) with Water-injected Oocytes turned out to be 0.6 ± 0.1 pmol/min per oocyte. In addition, in data set [1], the “Imax (maximal current)” value is recorded as “(1.0)” and the “membrane response (inward Na+ currents) of ASCT1-injected oocytes” value (“membrane response (inward Na+ currents)” below) is given as “hyperpolarization of the cell plasma membrane was produced”. Further, the “electrogenic uptake in EAAT1-expressing oocytes” value (shortened to “electrogenic uptake”) in data set [2] is reported as “did not result in electrogenic uptake”. For the same molecule, the “rate of radiolabeled amino acid uptake, ASCT1 RNA-injected Oocytes” value (“rate … ASCT1 RNA-injected Oocytes” for short) in data set [3] was determined as 18 ± 2 pmol/min per oocyte.

On to `N[C@@H](CS)C(=O)O` [L-cysteine], for which the “rate … Water-injected Oocytes” value in the data set with Water-injected Oocytes was 1.0 ± 0.3 pmol/min per oocyte. In data set [1], the “Imax (maximal current)” value was 1.0 ± 0.04 and the “membrane response (inward Na+ currents)” value is reported as “hyperpolarization of the cell plasma membrane was produced”. Moreover, in data set [2], the “electrogenic uptake” value was “capable of being electrogenically transported”. Also, in data set [3], the “rate … ASCT1 RNA-injected Oocytes” value is on record as 19.2 ± 5.9 pmol/min per oocyte.

As for `N[C@@H](CCC(=O)O)C(=O)O` [L-glutamate], the “inward electric current in EAAT1-expressing oocytes (stereospecificity)” value in data set [2] is given as “did not result in the generation of an inward electric current”. Also, in data set [2] (100 μM in ND-96), the “inward current in EAAT1-expressing oocytes” value is recorded as “inward currents as high as several microamps”. Moreover, the Km in data set [2] (inward current vs extracellular substrate concentration) was determined as 54 µM. Also, the “extracellular concentration causing neuronal cell death” value in the data set with neuronal cell (Bouvier et al., 1992, Nicholls & Attwell) was more than 300 µM; with neuronal cell (for 5 min., Choi et al., 1987) it was more than 5 µM.

As for `N[C@@H](CC(=O)NO)C(=O)O` [L-aspartate-β-hydroxymate], the Ki was 0.133 ± 0.034 mM on human EAAT3, 0.369 ± 0.07 mM on human EAAT1 and 184 ± 27 µM at human EAAT2.

`CNC(C)(C)C(=O)O` [MAIB, 2-methylaminoisobutyric acid]: the “effect on membrane current of ASCT1-injected oocytes” value in data set [1] (1 mM) is listed as “had no effect”. Moreover, the “effect on the rate of uptake of [3H] alanine (competition)” value in data set [3] (competitor 10 mM, [3H] alanine 100 μM) is recorded as “had no effect”.

Take `N[C@@H](CO)C(=O)O` [L-serine]: the “rate … Water-injected Oocytes” value with Water-injected Oocytes worked out at 0.4 ± 0.1 pmol/min per oocyte. Besides, in data set [1], the “Imax (maximal current)” value is 1.2 ± 0.08 and the “membrane response (inward Na+ currents)” value was “hyperpolarization of the cell plasma membrane was produced”. Also, the “electrogenic uptake” value in data set [2] is recorded as “did not result in electrogenic uptake”. Also, the “rate … ASCT1 RNA-injected Oocytes” value in data set [3] amounted to 20 ± 5.1 pmol/min per oocyte.

Consider `O=C(O)[C@H]1CN[C@H](C(=O)O)C1` [PDC, L-trans-pyrrolidine-2,4-dicarboxylate], for which the inhibitory constant (Ki) was determined as 0.061 ± 0.014 mM at human EAAT3, 0.079 ± 0.007 mM on human EAAT1 and 8 ± 2 µM at human EAAT2.

For `CN[C@H](CC(=O)O)C(=O)O` [N-methyl-D-aspartate], the “inhibition of glutamate uptake (in words), EAAT3” value on human EAAT3 (COS cell culture) is “ineffective”. Also, the “inhibition of glutamate uptake (in words), EAAT1” value on human EAAT1 (COS cell culture) is reported as “ineffective”. Also, the “inhibition of glutamate uptake (in words), EAAT2” value on human EAAT2 (COS cell culture) was “ineffective”.

`N[C@@H](CS(=O)(=O)O)C(=O)O` [L-cysteate]: the Ki at human EAAT3 (setting [4]) worked out at 0.019 ± 0.009 mM; on human EAAT1 (setting [4]), 0.01 ± 0.003 mM; on human EAAT2 (setting [4]) it was 10 ± 2 µM.

For the molecule `C=C(C)[C@H]1CN[C@H](C(=O)O)[C@H]1CC(=O)O` [KAI, kainate], the Ki on human EAAT3 (setting [5]) is more than 1 mM; at human EAAT1 (setting [5]), more than 1 mM; at human EAAT2 (setting [4]), 59 ± 18 µM.
